The NIST ThermoML archive (doi:10.1021/je700260f)
Numbers after ± are expanded uncertainties.

Settings: 323.15 K, Liquid, Vibrating tube method

FC(C(F)(F)F)C(F)(F)F [1,1,1,2,3,3,3-heptafluoropropane]
Settings | mass density [kg/m3]
9744 kPa | 1360.2 ± 1.5
9763 kPa | 1360.3 ± 1.5
9782 kPa | 1360.5 ± 1.5
9800 kPa | 1360.6 ± 1.5
9817 kPa | 1360.8 ± 1.5
9836 kPa | 1360.8 ± 1.5
9857 kPa | 1361.2 ± 1.5
9876 kPa | 1361.3 ± 1.5
9894 kPa | 1361.4 ± 1.5
10348 kPa | 1364.7 ± 1.5
10377 kPa | 1364.9 ± 1.5
10394 kPa | 1364.9 ± 1.5
10416 kPa | 1365.1 ± 1.5
10433 kPa | 1365.2 ± 1.5
10451 kPa | 1365.3 ± 1.5
10468 kPa | 1365.4 ± 1.5
10492 kPa | 1365.7 ± 1.5
10512 kPa | 1365.7 ± 1.5
10532 kPa | 1365.9 ± 1.5
10553 kPa | 1366 ± 1.5
10577 kPa | 1366.2 ± 1.5
10595 kPa | 1366.3 ± 1.5
10749 kPa | 1367.4 ± 1.5
10766 kPa | 1367.5 ± 1.5
10786 kPa | 1367.7 ± 1.5
10804 kPa | 1367.8 ± 1.5
10828 kPa | 1367.9 ± 1.5
10845 kPa | 1368.1 ± 1.5
10864 kPa | 1368.3 ± 1.5
10894 kPa | 1368.4 ± 1.5
11387 kPa | 1371.8 ± 1.5
11407 kPa | 1371.9 ± 1.5
11425 kPa | 1372 ± 1.5
11446 kPa | 1372.2 ± 1.5
11463 kPa | 1372.3 ± 1.5
11483 kPa | 1372.5 ± 1.5
11501 kPa | 1372.7 ± 1.5
11519 kPa | 1372.7 ± 1.5
11540 kPa | 1372.9 ± 1.5
12697 kPa | 1380.5 ± 1.5
12717 kPa | 1380.6 ± 1.5
12774 kPa | 1380.8 ± 1.5
12791 kPa | 1381 ± 1.5
12809 kPa | 1381.2 ± 1.5
12835 kPa | 1381.4 ± 1.5
12849 kPa | 1381.5 ± 1.5
12876 kPa | 1381.6 ± 1.5
12893 kPa | 1381.6 ± 1.5
12913 kPa | 1381.8 ± 1.5
12933 kPa | 1382 ± 1.5
12950 kPa | 1382.2 ± 1.5
12971 kPa | 1382.2 ± 1.5
12984 kPa | 1382.4 ± 1.5
13009 kPa | 1382.4 ± 1.5
13183 kPa | 1383.5 ± 1.5
13201 kPa | 1383.6 ± 1.5
13222 kPa | 1383.8 ± 1.5
13245 kPa | 1383.9 ± 1.5
13732 kPa | 1386.8 ± 1.5
13757 kPa | 1387.1 ± 1.5
13777 kPa | 1387.2 ± 1.5
13803 kPa | 1387.2 ± 1.5
13826 kPa | 1387.4 ± 1.5
13851 kPa | 1387.5 ± 1.5
13891 kPa | 1387.8 ± 1.5
13911 kPa | 1387.9 ± 1.5
13940 kPa | 1388.1 ± 1.5
13964 kPa | 1388.4 ± 1.5
13981 kPa | 1388.6 ± 1.5
14001 kPa | 1388.5 ± 1.5
14024 kPa | 1388.6 ± 1.5
14045 kPa | 1388.8 ± 1.5
14066 kPa | 1388.9 ± 1.5
14089 kPa | 1389.2 ± 1.5
14106 kPa | 1389.2 ± 1.5
14126 kPa | 1389.3 ± 1.5
14223 kPa | 1390 ± 1.5
14245 kPa | 1390 ± 1.5
14268 kPa | 1390.2 ± 1.5
14290 kPa | 1390.1 ± 1.5
14307 kPa | 1390.4 ± 1.5
14331 kPa | 1390.5 ± 1.5
14346 kPa | 1390.7 ± 1.6
14525 kPa | 1391.7 ± 1.6
14547 kPa | 1392 ± 1.6
14564 kPa | 1392 ± 1.6
14584 kPa | 1392 ± 1.6
14606 kPa | 1392.1 ± 1.6
14624 kPa | 1392.3 ± 1.6
14649 kPa | 1392.4 ± 1.6
14665 kPa | 1392.5 ± 1.6
14689 kPa | 1392.6 ± 1.6
14710 kPa | 1392.9 ± 1.6
15240 kPa | 1396 ± 1.6
15711 kPa | 1398.5 ± 1.6
15733 kPa | 1398.8 ± 1.6
15763 kPa | 1398.9 ± 1.6
15783 kPa | 1399.1 ± 1.6
15811 kPa | 1399.3 ± 1.6
15834 kPa | 1399.3 ± 1.6
15857 kPa | 1399.5 ± 1.6
15884 kPa | 1399.6 ± 1.6
15907 kPa | 1399.8 ± 1.6
15931 kPa | 1400 ± 1.6
15952 kPa | 1399.9 ± 1.6
15979 kPa | 1400.1 ± 1.6
15995 kPa | 1400.2 ± 1.6
16018 kPa | 1400.3 ± 1.6
16047 kPa | 1400.5 ± 1.6
16072 kPa | 1400.6 ± 1.6
16209 kPa | 1401.3 ± 1.6
16238 kPa | 1401.5 ± 1.6
16257 kPa | 1401.7 ± 1.6
16276 kPa | 1401.7 ± 1.6
16300 kPa | 1401.9 ± 1.6
16318 kPa | 1402 ± 1.6
16339 kPa | 1402.1 ± 1.6
16364 kPa | 1402.3 ± 1.6
16385 kPa | 1402.4 ± 1.6
16407 kPa | 1402.6 ± 1.6
16429 kPa | 1402.6 ± 1.6
16451 kPa | 1402.8 ± 1.6
16474 kPa | 1402.8 ± 1.6
16502 kPa | 1403 ± 1.6
16520 kPa | 1403.2 ± 1.6
16544 kPa | 1403.3 ± 1.6
16566 kPa | 1403.2 ± 1.6
16584 kPa | 1403.6 ± 1.6
16603 kPa | 1403.7 ± 1.6
16629 kPa | 1403.6 ± 1.6
16649 kPa | 1403.9 ± 1.6
16677 kPa | 1404.1 ± 1.6
16763 kPa | 1404.5 ± 1.6
16808 kPa | 1404.8 ± 1.6
16827 kPa | 1404.9 ± 1.6
16854 kPa | 1405.1 ± 1.6
16872 kPa | 1405 ± 1.6
16898 kPa | 1405.2 ± 1.6
16920 kPa | 1405.3 ± 1.6
16947 kPa | 1405.5 ± 1.6
16978 kPa | 1405.6 ± 1.6
16998 kPa | 1405.8 ± 1.6
17027 kPa | 1406 ± 1.6
17050 kPa | 1406 ± 1.6
17073 kPa | 1406.2 ± 1.6
17097 kPa | 1406.2 ± 1.6
17120 kPa | 1406.4 ± 1.6
17141 kPa | 1406.4 ± 1.6
17170 kPa | 1406.7 ± 1.6
17197 kPa | 1406.8 ± 1.6
17220 kPa | 1406.9 ± 1.6
17330 kPa | 1407.5 ± 1.6
17378 kPa | 1407.6 ± 1.6
17898 kPa | 1410.5 ± 1.6
17952 kPa | 1410.9 ± 1.6
17976 kPa | 1411.1 ± 1.6
17998 kPa | 1411.2 ± 1.6
18024 kPa | 1411.4 ± 1.6
18049 kPa | 1411.4 ± 1.6
18081 kPa | 1411.6 ± 1.6
18105 kPa | 1411.8 ± 1.6
18129 kPa | 1411.7 ± 1.6
18160 kPa | 1412 ± 1.6
18184 kPa | 1412.1 ± 1.6
18240 kPa | 1412.4 ± 1.6
18317 kPa | 1412.9 ± 1.6
18547 kPa | 1414 ± 1.6
18567 kPa | 1414.1 ± 1.6
18596 kPa | 1414.3 ± 1.6
18614 kPa | 1414.3 ± 1.6
18862 kPa | 1415.5 ± 1.6
18885 kPa | 1415.8 ± 1.6
18905 kPa | 1415.8 ± 1.6
18929 kPa | 1416 ± 1.6
18952 kPa | 1416.1 ± 1.6
18981 kPa | 1416.2 ± 1.6
19007 kPa | 1416.4 ± 1.6
19162 kPa | 1417 ± 1.6
19197 kPa | 1417.4 ± 1.6
20153 kPa | 1422 ± 1.6
20175 kPa | 1422.2 ± 1.6
20203 kPa | 1422.2 ± 1.6
20225 kPa | 1422.4 ± 1.6
20251 kPa | 1422.6 ± 1.6
20283 kPa | 1422.7 ± 1.6
20313 kPa | 1422.8 ± 1.6
20340 kPa | 1422.8 ± 1.6
20370 kPa | 1423.2 ± 1.6
20404 kPa | 1423.3 ± 1.6
20429 kPa | 1423.4 ± 1.6
20481 kPa | 1423.6 ± 1.6
21768 kPa | 1429.8 ± 1.6
21806 kPa | 1430 ± 1.6
21829 kPa | 1430.1 ± 1.6
21855 kPa | 1430 ± 1.6
21886 kPa | 1430.3 ± 1.6
21913 kPa | 1430.5 ± 1.6
21936 kPa | 1430.6 ± 1.6
21971 kPa | 1430.7 ± 1.6
22991 kPa | 1435.4 ± 1.6
23635 kPa | 1438.4 ± 1.6
23664 kPa | 1438.4 ± 1.6
23690 kPa | 1438.6 ± 1.6
23714 kPa | 1438.6 ± 1.6
23750 kPa | 1438.7 ± 1.6
